Tests used:
sGC α1/β1 heterodimer = sGC α1/β1 heterodimer (Homo sapiens (Human), UniProt Q02108+Q02153); test: Cell-based sGC functional assay (CASA assay), cGMP by HTRF; settings: CHO-K1/sGC cells; for Emax: CHO-K1, cGMP production as percentage of maximum of compound A (set to 100%), read-out: % Activation; for EC50: inflection point of cGMP production, 4P fit, read-out: IP
Summary of the method: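 cGMP made in CHO-K1/sGC (human α1/β1) cells is read by HTRF after compound treatment for 1 hr at 37° C, following 30 min at 25° C with or without 1 μM DETA-NO; IBMX 0.5 mM present. Values are % of standard compound maximum; 4P fit.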

[1] = biological target: human recombinant sGC enzyme (Homo sapiens (Human), UniProt Q02108+Q02153); test: SEC competition binding assay with [3H] Compound B radioligand; settings: displacement of 1.6 nM [3H] Compound B, 24 h at 37° C.
Summary of the method: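 Competition format: [3H] Compound B (1.6 nM) displaced from human recombinant sGC over 24 h at 37° C. in triethanolamine pH 7.4 buffer with MgCl2, BSA, DTT, 300 μM DETA/NO and 400 μM GTP (1% DMSO). Gel-filtration eluates counted by liquid scintillation; 1 μM Compound B defined non-specific binding; Ki by one-site fit.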

[2] = tested on: hypoxia-induced pulmonary hypertension in rat; test: Acute efficacy in hypoxia-induced pulmonary hypertension in rat following intratracheal (IT) administration; type: in vivo; settings: decrease in SBP at dose giving decrease in PAP ≥15 mmHg
Description: Acute Efficacy in Hypoxia-Induced Pulmonary Hypertension in Rat Following Intratracheal (IT) Administration Charles River Sprague-Dawley (CD) male rats weighing approximately 350 g were implanted with HD-S21 dual pressure telemetry transmitters (Data Sciences International (DSI)) into the pulmonary artery and femoral artery. This transmitter enables simultaneous measurement of both pulmonary and systemic hemodynamic parameters in the same animal. After a 7-10 day post-operative recovery period, animals were subjected to a normobaric hypoxic (10% oxygen) environment using a Higher Peak Mountain Air Generator (MAG-10) connected to a modified rodent cage via a fitted inlet port. Oxygen (at 10%), temperature, humidity, and CO2 were controlled within normal range and animals were maintained on a 12 hour light-dark cycle with ad libitum access to food and water. After two weeks exposure to 10% O2 hypoxic environment, systolic pulmonary arterial pressure readings increased from ˜25 mmHg to greater than 50 mmHg. Using a 48 hour baseline average, animals with readings between 50-110 mmHg (standard deviation of less than 10 mmHg) and minimal changes in systolic systemic blood pressure were enrolled for study. Animals were utilized for up to 2 studies per week for 4 weeks with a minimum of 2 days washout between doses of test agent. Compound or vehicle was administered intra-tracheally under light isoflurane anesthesia (5% in oxygen; flow rate 2.0 L/min for 3 minutes). Once anesthetized, rats were placed on an angled intubation stand in supine position and the trachea visualized using a small laryngoscope. Animals then received either 0.5 mL/kg of vehicle or 0.5 mL/kg vehicle containing compound intra-tracheally delivered via microsprayer by use of a Penn-Century Microsprayer® needle 3″ (Model IA-1B-GP) attached to a 1 mL high pressure syringe (Penn Century-Model B—SYR-PL1000) (Penn-Century, Philadelphia, Pa.). The Microsprayer® tip was inserted into the trachea up to the point at which the bend in the needle is close to the tip of the snout, which positions the tip of the Microsprayer® in front of the carina (bifurcation of trachea at the bronchi). After dose delivery the animal is placed on its back in the home cage for recovery. Hemodynamic measurements were continuously recorded and readings consolidated to hourly moving averages. Each animal received a vehicle on Day 1 followed by vehicle or test agent on Day 2. Change from vehicle baseline was calculated by subtracting the hourly Day 1 vehicle response from the hourly Day 2 response and treatment group data was expressed as mean±SEM. Decreases of systolic blood pressure (SBP) and systolic pulmonary arterial pressure (PAP) were measured at a particular IT dose (mpk milligrams per kilogram) for the following Example compounds. Compounds in the Table 13 achieved a minimum decrease in PAP of ≥15 mmHg for the corresponding decrease in SBP listed.

| Compound | Emax (sGC α1/β1 heterodimer) [%] | EC50 (sGC α1/β1 heterodimer) [nM] | Ki [1] [nM] | Category (decrease in SBP) ([2]; IT dose 0.03 mpk) | Category (decrease in SBP) ([2]; IT dose 0.01 mpk) | Category (decrease in SBP) ([2]; IT dose 0.3 mpk) |
| --- | --- | --- | --- | --- | --- | --- |
| CC1(c2ccc(C(F)(F)F)c(O)c2)C(=O)Nc2nc(-c3cn4ccnc4c(Cc4ccccc4F)n3)nc(N)c21 (stereo not drawn) [Example 3-B, 4-Amino-2-{8-[(2-fluorophenyl)methyl]imidazo[1,2-a]pyrazin-6-yl}-5-[3-hydroxy-4-(trifluoromethyl)phenyl]-5-methyl-5,7-dihydro-6H-pyrrolo[2,3-d]pyrimidin-6-one] | 98 | 2080 | 0.219 | A (decrease in SBP 0-5 mmHg) | – | – |
| CC1(c2cc(O)c(Cl)cn2)C(=O)Nc2nc(-c3cn4ccnc4c(Cc4ccccc4F)n3)nc(N)c21 (stereo not drawn) [Example 4-B, 4-Amino-5-(5-chloro-4-hydroxypyridin-2-yl)-2-{8-[(2-fluorophenyl)methyl]imidazo[1,2-a]pyrazin-6-yl}-5-methyl-5,7-dihydro-6H-pyrrolo[2,3-d]pyrimidin-6-one] | 136 | 1920 | 0.259 | A (decrease in SBP 0-5 mmHg) | – | – |
| CC1(c2ccc(Cl)c(O)c2)C(=O)Nc2nc(-c3cn4ccnc4c(Cc4ccccc4F)n3)nc(N)c21 (stereo not drawn) [Example 8-A, 4-Amino-5-(4-chloro-3-hydroxyphenyl)-2-{8-[(2-fluorophenyl)methyl]imidazo[1,2-a]pyrazin-6-yl}-5-methyl-5,7-dihydro-6H-pyrrolo[2,3-d]pyrimidin-6-one] | 72 | 316 | 0.117 | – | B (decrease in SBP 5-10 mmHg) | – |
| CC1(c2cccc(O)c2)C(=O)Nc2nc(-c3cn4ccnc4c(Cc4cc(F)ccc4F)n3)nc(N)c21 (stereo not drawn) [Example 11-B, 4-Amino-2-{8-[(2,5-difluorophenyl)methyl]imidazo[1,2-a]pyrazin-6-yl}-5-(3-hydroxyphenyl)-5-methyl-5,7-dihydro-6H-pyrrolo[2,3-d]pyrimidin-6-one] | 137 | 503 | 0.135 | – | B (decrease in SBP 5-10 mmHg) | – |
| CC1(c2ccc(F)c(O)c2)C(=O)Nc2nc(-c3cn4ccnc4c(Cc4ccccc4F)n3)nc(N)c21 (stereo not drawn) [Example 13-B, 4-Amino-5-(4-fluoro-3-hydroxyphenyl)-2-{8-[(2-fluorophenyl)methyl]imidazo[1,2-a]pyrazin-6-yl}-5-methyl-5,7-dihydro-6H-pyrrolo[2,3-d]pyrimidin-6-one] | 100 | 821 | 0.154 | – | A (decrease in SBP 0-5 mmHg) | – |
| CC1(c2ccc(Cl)c(O)c2)C(=O)Nc2nc(-c3cn4ccnc4c(CC4CCCCC4)n3)nc(N)c21 (stereo not drawn) [Example 14-A, 4-Amino-5-(4-chloro-3-hydroxyphenyl)-2-(8-(cyclohexylmethyl)imidazo[1,2-a]pyrazin-6-yl)-5-methyl-5,7-dihydro-6H-pyrrolo[2,3-d]pyrimidin-6-one] | 68 | 144 | 0.156 | – | A (decrease in SBP 0-5 mmHg) | – |
| CC1(c2cc(O)c(C#N)c(F)c2)C(=O)Nc2nc(-c3cn4ccnc4c(CC4CCCCC4)n3)nc(N)c21 (stereo not drawn) [Example 18-B, 4-(4-Amino-2-(8-(cyclohexylmethyl)imidazo[1,2-a]pyrazin-6-yl)-5-methyl-6-oxo-6,7-dihydro-5H-pyrrolo[2,3-d]pyrimidin-5-yl)-2-fluoro-6-hydroxybenzonitrile] | 88 | 950 | 0.168 | B (decrease in SBP 5-10 mmHg) | – | – |
| CC1(c2cc(O)c(C#N)c(F)c2)C(=O)Nc2nc(-c3cn4ccnc4c(Cc4ccccc4F)n3)nc(N)c21 (stereo not drawn) [Example 23-B, 4-(4-Amino-2-{8-[(2-fluorophenyl)methyl]imidazo[1,2-a]pyrazin-6-yl}-5-methyl-6-oxo-6,7-dihydro-5H-pyrrolo[2,3-d]pyrimidin-5-yl)-2-fluoro-6-hydroxybenzonitrile] | 76 | 3110 | 0.216 | A (decrease in SBP 0-5 mmHg) | – | – |
| CC(C)CCc1nc(-c2nc(N)c3c(n2)NC(=O)C3(C)c2ccc(Cl)c(O)c2)cn2ccnc12 (stereo not drawn) [Example 25-A, 4-Amino-5-(4-chloro-3-hydroxyphenyl)-2-(8-isopentylimidazo[1,2-a]pyrazin-6-yl)-5-methyl-5,7-dihydro-6H-pyrrolo[2,3-d]pyrimidin-6-one] | 117 | 223 | 0.252 | B (decrease in SBP 5-10 mmHg) | – | – |
| CC1(c2ccc(O)c(Cl)c2)C(=O)Nc2nc(-c3cn4ccnc4c(Cc4ccccc4F)n3)nc(N)c21 (stereo not drawn) [Example 28-B, 4-Amino-5-(3-chloro-4-hydroxyphenyl)-2-{8-[(2-fluorophenyl)methyl]imidazo[1,2-a]pyrazin-6-yl}-5-methyl-5,7-dihydro-6H-pyrrolo[2,3-d]pyrimidin-6-one] | 141 | 433 | 0.283 | – | B (decrease in SBP 5-10 mmHg) | – |
| CC1(c2ccc(O)c(F)c2)C(=O)Nc2nc(-c3cn4ccnc4c(Cc4ccc(F)cc4)n3)nc(N)c21 (stereo not drawn) [Example 29-B, 4-Amino-5-(3-fluoro-4-hydroxyphenyl)-2-{8-[(4-fluorophenyl)methyl]imidazo[1,2-a]pyrazin-6-yl}-5-methyl-5,7-dihydro-6H-pyrrolo[2,3-d]pyrimidin-6-one] | 80 | 67 | 0.291 | C (decrease in SBP >10 mmHg) | – | – |
| CC1(c2cc(O)c(C#N)c(F)c2)C(=O)Nc2nc(-c3cn4ccnc4c(Cc4cc(F)cc(F)c4)n3)nc(N)c21 (stereo not drawn) [Example 38-B, 4-(4-Amino-2-{8-[(3,5-difluorophenyl)methyl]imidazo[1,2-a]pyrazin-6-yl}-5-methyl-6-oxo-6,7-dihydro-5H-pyrrolo[2,3-d]pyrimidin-5-yl)-2-fluoro-6-hydroxybenzonitrile] | 92 | 720 | 0.41 | A (decrease in SBP 0-5 mmHg) | – | – |
| CC1(c2cc(O)c(Cl)cn2)C(=O)Nc2nc(-c3cn4ccnc4c(Cc4cccc(F)c4)n3)nc(N)c21 (stereo not drawn) [Example 51-B, 4-Amino-5-(5-chloro-4-hydroxypyridin-2-yl)-2-{8-[(3-fluorophenyl)methyl]imidazo[1,2-a]pyrazin-6-yl}-5-methyl-5,7-dihydro-6H-pyrrolo[2,3-d]pyrimidin-6-one] | 88 | 1020 | 0.874 | A (decrease in SBP 0-5 mmHg) | – | – |
| CC1(c2cccc(O)c2)C(=O)Nc2nc(-c3cn4ncnc4c(CCC(F)(F)C(F)(F)F)n3)nc(N)c21 (stereo not drawn) [Example 78-B, 4-Amino-5-(3-hydroxyphenyl)-5-methyl-2-(8-(3,3,4,4,4-pentafluorobutyl)-[1,2,4]triazolo[1,5-a]pyrazin-6-yl)-5,7-dihydro-6H-pyrrolo[2,3-d]pyrimidin-6-one] | 93 | 202 | 8.88 | – | – | C (decrease in SBP >10 mmHg) |
| CC1(c2ccc(Cl)c(O)c2)C(=O)Nc2nc(-c3cn4ncnc4c(CCC(F)(F)C(F)(F)F)n3)nc(N)c21 (stereo not drawn) [Example 88-A, 4-Amino-5-(4-chloro-3-hydroxyphenyl)-5-methyl-2-(8-(3,3,4,4,4-pentafluorobutyl)-[1,2,4]triazolo[1,5-a]pyrazin-6-yl)-5,7-dihydro-6H-pyrrolo[2,3-d]pyrimidin-6-one] | 95 | 279 | 2.5 | A (decrease in SBP 0-5 mmHg) | – | – |

Reference: patent US10780092B2, “Fused pyrazine derivatives useful as soluble guanylate cyclase stimulators” (Merck Sharp & Dohme Corp., priority 2016, dated 2020)
